# Activity calls are given as the source filed them. The calls are words filed in the database; no cut-off is given here.
# Experiments:
# [1] = target: Kappa-type opioid receptor (Homo sapiens) (UniProt P41145); test: Inhibition of KOR (unknown origin) at 10 uM relative to control
# [2] = system: Rattus norvegicus; test: Hepatotoxicity in Sprague-Dawley rat assessed as effect on AST level at 30 mg/kg, po bid administered for 5 days; assay type: toxicity, organism-based; design: dose 30 mg/kg, route oral; conditions: in vivo, 120 h
# [3] = system: Cynomolgus monkey; test: Unbound AUC in castrated cynomolgus monkey at 10 mg/kg, iv by LC-MS/MS analysis; assay type: ADME, organism-based, Macaca fascicularis; design: dose 10 mg/kg, route intravenous; conditions: in vivo
# [4] = system: Rattus norvegicus; test: Hepatotoxicity in Sprague-Dawley rat assessed as effect on bilirubin level at 30 mg/kg, po bid administered for 5 days; assay type: toxicity, organism-based; design: dose 30 mg/kg, route oral; conditions: in vivo, 120 h
# [5] = Tmax in castrated cynomolgus monkey at 5 mg/kg, po by LC-MS/MS analysis; assay type: ADME, organism-based, Macaca fascicularis; design: dose 5 mg/kg, route oral; conditions: male, in vivo
# [6] = system: Cynomolgus monkey; test: Unbound AUC in castrated cynomolgus monkey at 20 mg/kg, po by LC-MS/MS analysis; assay type: ADME, organism-based, Macaca fascicularis; design: dose 20 mg/kg, route oral; conditions: in vivo
# [7] = system: Cynomolgus monkey; test: Unbound AUC in castrated cynomolgus monkey at 5 mg/kg, po by LC-MS/MS analysis; assay type: ADME, organism-based, Macaca fascicularis; design: dose 5 mg/kg, route oral; conditions: in vivo
# [8] = Total systemic clearance in castrated cynomolgus monkey at 10 mg/kg, iv by LC-MS/MS analysis; assay type: ADME, organism-based, Macaca fascicularis; design: dose 10 mg/kg, route intravenous; conditions: male, in vivo
# [9] = Tmax in castrated cynomolgus monkey at 20 mg/kg, po by LC-MS/MS analysis; assay type: ADME, organism-based, Macaca fascicularis; design: dose 20 mg/kg, route oral; conditions: male, in vivo
# [10] = system: Cynomolgus monkey; test: In vivo inhibition of NK3R in castrated cynomolgus monkey assessed as decrease in plasma luteinizing hormone level at 20 mg/kg, po measured at 480 mins; assay type: functional, organism-based; design: dose 20 mg/kg; conditions: Macaca fascicularis
# [11] = Volume of distribution at steady state in castrated cynomolgus monkey at 10 mg/kg, iv by LC-MS/MS analysis; conditions: male, in vivo
# [12] = system: Cynomolgus monkey; test: In vivo inhibition of NK3R in castrated cynomolgus monkey assessed as decrease in plasma luteinizing hormone level at 20 mg/kg, po measured at 90 mins relative to control; assay type: functional; conditions: Macaca fascicularis, 1.5 h
# [13] = target: Voltage-gated inwardly rectifying potassium channel KCNH2 (Homo sapiens, UniProt Q12809)
# Sequence of Voltage-gated inwardly rectifying potassium channel KCNH2 (Q12809 whole entry): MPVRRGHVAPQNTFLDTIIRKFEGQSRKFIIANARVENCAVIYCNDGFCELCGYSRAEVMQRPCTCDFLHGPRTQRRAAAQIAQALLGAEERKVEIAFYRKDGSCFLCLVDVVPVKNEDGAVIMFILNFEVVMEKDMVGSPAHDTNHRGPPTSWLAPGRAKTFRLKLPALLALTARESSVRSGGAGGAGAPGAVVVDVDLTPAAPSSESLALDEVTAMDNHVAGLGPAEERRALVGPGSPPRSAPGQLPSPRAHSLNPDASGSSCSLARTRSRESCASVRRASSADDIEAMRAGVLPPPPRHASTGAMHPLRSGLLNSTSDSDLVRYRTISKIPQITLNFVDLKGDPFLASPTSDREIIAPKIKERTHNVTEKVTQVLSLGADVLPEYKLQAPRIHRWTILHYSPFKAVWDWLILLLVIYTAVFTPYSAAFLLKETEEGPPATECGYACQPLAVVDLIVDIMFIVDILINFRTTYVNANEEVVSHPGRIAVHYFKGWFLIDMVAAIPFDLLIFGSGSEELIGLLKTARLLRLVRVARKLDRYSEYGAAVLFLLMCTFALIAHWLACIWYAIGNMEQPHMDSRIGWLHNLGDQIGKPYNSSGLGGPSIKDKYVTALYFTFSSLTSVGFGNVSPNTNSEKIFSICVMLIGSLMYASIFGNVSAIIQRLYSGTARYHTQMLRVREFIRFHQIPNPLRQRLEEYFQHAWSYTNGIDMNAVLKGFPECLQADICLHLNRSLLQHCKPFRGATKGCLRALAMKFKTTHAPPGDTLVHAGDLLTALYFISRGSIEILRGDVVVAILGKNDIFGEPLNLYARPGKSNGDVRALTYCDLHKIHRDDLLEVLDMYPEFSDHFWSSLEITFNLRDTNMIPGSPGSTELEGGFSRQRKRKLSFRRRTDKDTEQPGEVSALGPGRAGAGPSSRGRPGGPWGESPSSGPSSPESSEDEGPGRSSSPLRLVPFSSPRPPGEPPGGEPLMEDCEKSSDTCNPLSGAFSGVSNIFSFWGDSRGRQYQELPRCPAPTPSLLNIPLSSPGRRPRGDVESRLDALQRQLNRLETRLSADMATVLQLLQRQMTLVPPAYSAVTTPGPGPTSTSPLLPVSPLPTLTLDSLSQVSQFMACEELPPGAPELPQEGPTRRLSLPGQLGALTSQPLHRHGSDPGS
# Description: Inhibition of human ERG expressed in HEK293 cells after 5 mins by patch-clamp assay
# [14] = system: Cynomolgus monkey; test: In vivo inhibition of NK3R in castrated cynomolgus monkey assessed as decrease in plasma luteinizing hormone level at 20 mg/kg, po measured at 90 to 300 mins; assay type: functional, organism-based; design: dose 20 mg/kg; conditions: Macaca fascicularis
# [15] = system: Rattus norvegicus; test: Drug uptake in Sprague-Dawley rat at 30 mg/kg, po bid administered for 5 days; assay type: ADME, organism-based; design: dose 30 mg/kg, route oral; conditions: in vivo, 120 h
# [16] = Apparent permeability across basolateral to apical side in human Caco2 cells in presence of 0.1% bovine serum albumin; conditions: Caco-2
# [17] = system: Cynomolgus monkey; test: Unbound Cmax in castrated cynomolgus monkey at 20 mg/kg, po by LC-MS/MS analysis; assay type: ADME, organism-based, Macaca fascicularis; design: dose 20 mg/kg, route oral; conditions: in vivo
# [18] = system: Cynomolgus monkey; test: Unbound Cmax in castrated cynomolgus monkey at 5 mg/kg, po by LC-MS/MS analysis; assay type: ADME, organism-based, Macaca fascicularis; design: dose 5 mg/kg, route oral; conditions: in vivo
# [19] = system: Rattus norvegicus; test: Hepatotoxicity in Sprague-Dawley rat assessed as effect on ALT level at 30 mg/kg, po bid administered for 5 days; assay type: toxicity, organism-based; design: dose 30 mg/kg, route oral; conditions: in vivo, 120 h
# [20] = Apparent permeability across apical to basolateral side in human Caco2 cells in presence of 0.1% bovine serum albumin; conditions: Caco-2
# [21] = target: Neuropeptide FF receptor 1 (Homo sapiens) (UniProt Q9GZQ6); test: Inhibition of NPFF1 (unknown origin) at 10 uM relative to control
# Sequence of Neuropeptide FF receptor 1 (Homo sapiens) (Q9GZQ6 whole entry): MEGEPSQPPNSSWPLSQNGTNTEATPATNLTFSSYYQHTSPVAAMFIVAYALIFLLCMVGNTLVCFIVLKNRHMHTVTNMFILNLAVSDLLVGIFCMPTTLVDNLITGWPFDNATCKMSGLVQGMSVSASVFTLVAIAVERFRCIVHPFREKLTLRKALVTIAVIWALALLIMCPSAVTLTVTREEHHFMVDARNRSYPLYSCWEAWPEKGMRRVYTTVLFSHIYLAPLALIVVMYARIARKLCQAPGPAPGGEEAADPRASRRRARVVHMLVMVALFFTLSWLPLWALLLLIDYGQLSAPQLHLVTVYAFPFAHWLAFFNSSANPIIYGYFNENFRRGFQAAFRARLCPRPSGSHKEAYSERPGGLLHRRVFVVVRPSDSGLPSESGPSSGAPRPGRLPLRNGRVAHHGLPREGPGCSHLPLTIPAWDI
# [22] = in vivo; conditions: Sprague-Dawley, rat, po, 3 mg/kg
# [23] = target: T1, Neuromedin-K receptor (Homo sapiens, UniProt P29371)
# T1 sequence (P29371 whole entry): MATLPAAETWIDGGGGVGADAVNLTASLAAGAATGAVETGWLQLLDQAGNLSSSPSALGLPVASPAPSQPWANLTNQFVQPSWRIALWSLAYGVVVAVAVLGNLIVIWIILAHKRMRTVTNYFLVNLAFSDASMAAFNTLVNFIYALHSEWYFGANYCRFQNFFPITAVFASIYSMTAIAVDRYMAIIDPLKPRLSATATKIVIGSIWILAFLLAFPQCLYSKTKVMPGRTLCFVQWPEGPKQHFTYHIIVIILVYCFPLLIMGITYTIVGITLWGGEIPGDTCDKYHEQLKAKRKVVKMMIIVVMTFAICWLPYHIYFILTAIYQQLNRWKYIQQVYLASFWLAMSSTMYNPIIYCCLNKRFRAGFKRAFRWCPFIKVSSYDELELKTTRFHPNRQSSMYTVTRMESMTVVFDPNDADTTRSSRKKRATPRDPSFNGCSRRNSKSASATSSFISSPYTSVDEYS
# [24] = in vivo; conditions: Sprague-Dawley, rat, iv, 1 mg/kg
# [25] = target: T2, Substance-K receptor (Homo sapiens, UniProt P21452); test: Displacement of [125I]-neurokinin A from human NK2R after 90 mins by scintillation counting analysis
# T2 sequence (P21452 whole entry): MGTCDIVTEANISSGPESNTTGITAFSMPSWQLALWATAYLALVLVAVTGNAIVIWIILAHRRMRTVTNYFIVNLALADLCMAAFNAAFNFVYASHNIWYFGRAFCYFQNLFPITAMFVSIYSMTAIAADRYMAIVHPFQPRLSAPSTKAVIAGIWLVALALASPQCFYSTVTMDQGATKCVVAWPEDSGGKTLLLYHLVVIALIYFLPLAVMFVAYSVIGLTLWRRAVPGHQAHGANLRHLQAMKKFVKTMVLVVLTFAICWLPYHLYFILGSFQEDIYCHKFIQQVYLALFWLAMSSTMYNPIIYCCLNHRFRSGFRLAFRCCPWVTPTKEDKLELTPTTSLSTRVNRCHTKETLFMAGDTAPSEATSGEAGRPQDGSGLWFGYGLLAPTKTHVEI
# [26] = target: Substance-P receptor (Homo sapiens, UniProt P25103)
# Sequence of Substance-P receptor (P25103 whole entry): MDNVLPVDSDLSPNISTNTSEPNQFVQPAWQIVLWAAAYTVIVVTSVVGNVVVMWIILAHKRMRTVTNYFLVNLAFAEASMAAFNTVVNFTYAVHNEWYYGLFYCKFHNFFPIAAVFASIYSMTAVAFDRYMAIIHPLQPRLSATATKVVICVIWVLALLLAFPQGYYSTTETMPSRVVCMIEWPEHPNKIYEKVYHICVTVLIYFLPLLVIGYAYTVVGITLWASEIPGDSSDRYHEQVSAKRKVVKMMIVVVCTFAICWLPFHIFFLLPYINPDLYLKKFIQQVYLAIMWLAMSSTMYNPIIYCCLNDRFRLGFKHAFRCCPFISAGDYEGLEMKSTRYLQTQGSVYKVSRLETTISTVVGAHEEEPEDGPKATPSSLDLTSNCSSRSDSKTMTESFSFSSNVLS
# Description: Displacement of [3H]-Substance P from human NK1R after 90 mins by scintillation counting analysis
# [27] = target: T1, Neuromedin-K receptor; test: biochemical
# Description: Displacement of [3H]-SB222200 from recombinant human NK3R expressed in CHO cell membranes after 90 mins by scintillation counting analysis
# [28] = system: Rattus norvegicus; test: In vivo inhibition of NK3R in castrated Sprague-Dawley rat assessed as decrease in serum luteinizing hormone level at 10 mg/kg, iv by radioimmunoassay relative to control; assay type: functional
# Sequence of Kappa-type opioid receptor (Homo sapiens) (P41145 whole entry): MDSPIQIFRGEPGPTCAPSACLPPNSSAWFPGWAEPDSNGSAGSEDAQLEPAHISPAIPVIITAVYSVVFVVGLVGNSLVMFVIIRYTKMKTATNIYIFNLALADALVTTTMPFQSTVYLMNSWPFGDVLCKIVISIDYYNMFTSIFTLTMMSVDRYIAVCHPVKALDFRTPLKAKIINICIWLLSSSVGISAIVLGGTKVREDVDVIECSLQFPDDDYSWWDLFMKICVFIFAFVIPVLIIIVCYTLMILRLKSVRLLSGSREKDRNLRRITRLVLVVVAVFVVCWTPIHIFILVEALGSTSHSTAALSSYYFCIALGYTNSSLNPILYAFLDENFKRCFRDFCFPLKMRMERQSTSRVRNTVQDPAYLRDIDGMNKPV
smiles,measurement,setting,value
Cc1nc(-c2nnc3n2CCN(C(=O)c2ccc(-c4cccs4)cc2)[C@@H]3C)cs1,inhibition,[1],25%
same,Activity,[2],Non-toxic
same,fAUC,[3],1.055 µM·h
same,Activity,[4],Non-toxic
same,Tmax,[5],1.5 h
same,fAUC,[6],0.526 µM·h
same,fAUC,[7],0.0646 µM·h
same,clearance,[8],16.5 mL/min/kg
same,Tmax,[9],1 h
same,inhibition,[10],inactive
same,Vd,[11],1.52 L/kg
same,inhibition in vivo at 20 mg/kg,[12],40%
same,IC50,[13],24000 nM
same,inhibition,[14],Active
same,Drug uptake,[15],Not Active
same,Papp B→A,[16],52.9 ×10⁻⁶ cm/s
same,fCmax,[17],237 nM
same,fCmax,[18],17.9 nM
same,Activity,[19],Non-toxic
same,Papp A→B,[20],48.2 ×10⁻⁶ cm/s
same,inhibition,[21],18%
C[C@@H]1c2nnc(-c3csc(-c4ccc(F)cc4F)n3)n2CCN1C(=O)c1ccc(-c2cccs2)cc1,bioavailability,[22],17%
same,IC50,[23],20 nM
same,half-life,[24],5.35 h
same,Ki,[25],794 nM
same,Ki,[26],1260 nM
same,Ki,[27],2 nM
same,inhibition in vivo at 10 mg/kg,[28],50%

# Reference: ChEMBL document CHEMBL3421625, “Discovery and optimization of novel antagonists to the human neurokinin-3 receptor for the treatment of sex-hormone disorders (Part I)” (J Med Chem, 2015)
